What is called Kb is the affinity of an antagonist, worked out from how it opposes an agonist.

The source of these data is patent publication US5461046A, “1-,2-,3-,4-,5-,6-,7-,8-, and/or 9-substituted dibenzoxazepine compounds, pharmaceutical compositions and methods for treating pain” (G. D. Searle & Co., priority 1993, dated 1995).

Assay [1] has as its system phenylbenzoquinone (PBQ)-induced writhing in mice. As to the kind of experiment: Writhing Assay (phenylbenzoquinone-induced writhing, analgesia). Type of assay: in vivo, Charles River male albino mice. As to conditions: Mus musculus, 25 min, 25 min before PBQ i.p., number of mice out of ten with analgesia. The text has this:
The Writhing Assay is one of the most widely-used experimental procedures for measuring the analgesic activity of different narcotic and nonnarcotic analgesic agents, and involves the continuous, chemically-induced pain of visceral origin to an animal, such as a mouse or rat. [Gyires et al., Arch. int. Pharmacodyn, 267, 131-140 (1984); C. Vander Wende et al., Fed. Proc., 15, 494 (1956); Koster et al., Fed. Proc., 18, 412 (1959); and Witken et al., J. Pharmacol. exp. Ther., 133, 400-408 (1961).] Chemicals which may be used to induce this pain include phenylbenzoquinone (PBQ) and acetic acid. As a result of the chemical irritation to the animal, a characteristic stretching and writhing of the animal (dorsiflexion of the animal's back, extension of its hindlimbs and the strong contraction of its abdominal musculature) will generally occur. […] Drugs which reduce the number of writhes of the animal appear to restore the normal nociceptive threshold of the animal.
Charles River male albino mice, weighing 20 to 30 grams were used in this assay.
Twenty-five minutes after subcutaneous or intragastric administration to ten mice of 30 mg per kilogram of body weight of a compound of the present invention ("test compound"), […] per 10 g of body weight of a 0.025% w/v solution of PBQ was injected intraperitoneally into each mouse. Ten mice which were given saline in place of a test compound of the invention were used as a control group.
Five minutes later, each mouse was individually placed into a glass beaker for observation, and the number of writhes occurring during the following ten-minute period was counted.
A test compound was considered to have produced analgesia in a mouse if, in accordance with the conditions set forth above, and under the test criteria employed for this assay, after the administration of 30 mg per kilogram of body weight of a compound of the present invention to the mouse, the number of writhes elicited by a mouse injected with PBQ was equal to, or less than, one-half the median number of writhes recorded for the saline-treated control group of mice that day, as described by Taber in "Predictive Value of Analgesic Assays in Mice and Rats," Advances in Biochemical Psychopharmacology, 8, 191 (1974).
The results for the particular compounds of the present invention analyzed in this assay, and discussed in the examples identified below which correspond thereto, are presented in Table 2 hereinbelow under the heading "WRITHING ASSAY." The fractions indicate the number of mice out of ten in which a test compound produced analgesia.
On the technique in general: In writhing tests, fewer writhes than in controls are read as antinociception.

Assay [2] addresses T1, prostaglandin E2-induced contractions of segments of guinea pig ileum (Cavia porcellus, UniProt A0A286XHJ6).
T1 construct: The ilea were then quickly removed from the guinea pigs; from tissue; host or cells: ileum segments of male albino guinea pigs
T1 sequence (A0A286XHJ6 1-405): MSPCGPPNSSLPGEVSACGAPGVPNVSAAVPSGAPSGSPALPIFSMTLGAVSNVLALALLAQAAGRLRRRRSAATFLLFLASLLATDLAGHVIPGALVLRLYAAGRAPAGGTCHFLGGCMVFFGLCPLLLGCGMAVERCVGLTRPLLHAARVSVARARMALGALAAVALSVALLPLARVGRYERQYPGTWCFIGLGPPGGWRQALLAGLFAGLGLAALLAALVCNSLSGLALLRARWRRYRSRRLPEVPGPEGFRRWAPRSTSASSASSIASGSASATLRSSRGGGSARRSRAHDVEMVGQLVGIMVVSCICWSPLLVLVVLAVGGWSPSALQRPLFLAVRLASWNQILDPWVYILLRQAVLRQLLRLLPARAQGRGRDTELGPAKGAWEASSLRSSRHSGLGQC
Kind of assay: Prostaglandin (PGE) Antagonism Assay in guinea pig ileum. As to conditions: initial concentration 3 micromolar; estimated pA2 (slope -1.0 assumed) or Schild plot pA2. Here is the method:
In order to determine the effectiveness of several of the compounds of the present invention ("test compounds") as prostaglandin E2 antagonists,a prostaglandin antagonism assay was conducted, as described below, to determine the ability of these compounds to inhibit prostaglandin E2 -induced contractions of segments of guinea pig ileum.
Male albino guinea pigs weighing 200 to 500 grams were sacrificed by cervical dislocation. The ilea were then quickly removed from the guinea pigs and placed in a modified Tyrode solution, a solution which is known to those skilled in the art, containing one-half of the usual amount of magnesium ions.
Segments of ileum about 2 cm long were then cut and mounted in a 10-mL tissue bath containing the modified Tyrode solution. The solution was maintained at 37° C. and aerated with a gaseous mixture of 95% oxygen and 5% carbon dioxide. Data for a control prostaglandin E2 dose response curve plotting concentration of prostaglandin E2 versus the intensity of contractions, detected isotonically, was then obtained by experimentally adjusting the dose of the prostaglandin E2 being injected into the tissue bath, in a manner known by those of skill in the art.
Solutions or suspensions containing an initial concentration (3 micromolar) of a test compound in modified Tyrode solution ("test solutions/suspensions") were then separately substituted for the control bath solution. Each test solution/suspension was then kept in constant contact with the ileum tissue, except for brief periods to drain the bath in preparation for rinsing with fresh test solution/suspension. A second prostaglandin E2 dose response curve was then generated for prostaglandin E2 in the presence of a test compound.
A dose ratio of EC50 doses was then calculated from the results of each test in a manner known by those of skill in the art. A test compound was determined to be "active" if the initial concentration used yielded at least a two-fold shift (dose ratio greater than or equal to 2) in the dose response curve for prostaglandin E2.
The compounds of the present invention which were tested in this assay, and for which results are presented in Table 2, correspond to the particular examples specified in Table 2.

The mark [3] stands for this setting: ip, 30 mg per kg i.g., read-out: WRITHING ASSAY Number Out of Ten I.G. (converted).
Where [4] appears, read: sc, 30 mg per kg s.c., read-out: WRITHING ASSAY Number Out of Ten S.C.

Where two headings read alike, the source gives them in different places.

With `CCS(=O)(=O)CCC(=O)NNC(=O)N1Cc2ccccc2Oc2ccc(F)cc21` [Example 7, 8-fluorodibenz[b,f][1,4]oxazepine-10(11H)-carboxylic acid, 2-[3-(ethylsulfonyl)-1-oxopropyl]hydrazide], the responders at 30 mg/kg in assay [1] (setting [3]) is 40%; in assay [1] (setting [4]), 60%.
Take `CCS(=O)(=O)CCC(=O)NNC(=O)N1Cc2ccccc2Oc2ccc(C(=O)OC(C)(C)C)cc21` [Example 3, Dibenz[b,f][1,4]oxazepine-8,10(11H)-dicarboxylic acid, 8-(1,1-dimethylethyl) ester, 10-[2-[3-(ethylsulfonyl)-1-oxopropyl]hydrazide]]: the values for the responders at 30 mg/kg in assay [1] (setting [3]) and in assay [1] (setting [4]) were 40% and 30%, respectively. In assay [2], the Kb was 1780 nM.
The like results for `CCS(=O)(=O)CCC(=O)NNC(=O)N1Cc2cc(Cl)ccc2Oc2ccc(Cl)cc21` [Example 9, 2,8-dichlorodibenz[b,f][1,4]oxazepine-10(11H)-carboxylic acid, 2-[3-(ethylsulfonyl)-1-oxopropyl]hydrazide] were, in that order, 40%, 30% and 1580 nM.
Taken in the same sequence, the figures for `CCS(=O)(=O)CCC(=O)NNC(=O)N1Cc2ccccc2Oc2ccc(C(=O)OC)cc21` [Example 1, Dibenz [b,f][1,4]oxazepine-8,10(11H)dicarboxylic acid, 8-methyl ester, 10-[2-[3-(ethylsulfonyl)-1-oxopropyl]hydrazide]] were 30%, 50% and 2880 nM.
Taken in the same sequence, the figures for `CCS(=O)(=O)CCC(=O)NNC(=O)N1Cc2ccccc2Oc2ccccc21` [Example 21, Dibenz[b,f][1,4]oxazepine-10(11H)-carboxylic acid, 2-[3-(ethylsulfonyl)-1-oxopropyl]hydrazide] were 50%, 10% and 1050 nM.
As to `CCS(=O)(=O)CCC(=O)NNC(=O)N1Cc2ccccc2Oc2ccc(N)cc21` [Example 13, 8-aminodibenz[b,f][1,4]oxazepine-10(11H)-carboxylic acid, 2-[3-(ethylsulfonyl)-1-oxopropyl]hydrazide], the responders at 30 mg/kg in assay [1] (setting [3]) and in assay [1] (setting [4]) was 40% each time. Further, in assay [2], the Kb is 2820 nM.
Regarding `CCS(=O)(=O)CCC(=O)NNC(=O)N1Cc2ccccc2Oc2ccc(C(=O)O)cc21` [Example 4, Dibenz[b,f][1,4]oxazepine-8,10(11H)-dicarboxylic acid, 10-[2-[3-(ethylsulfonyl)-1-oxopropyl]hydrazide]], the responders at 30 mg/kg is 30% in assay [1] (setting [3]) and 40% in assay [1] (setting [4]).
In the case of `CCS(=O)(=O)CCC(=O)NNC(=O)N1Cc2ccccc2Oc2ccc([N+](=O)[O-])cc21` [Example 10, 8-nitrodibenz[b,f][1,4]oxazepine-10(11H)-carboxylic acid, 2-[3-(ethylsulfonyl)-1-oxopropyl]hydrazide], the responders at 30 mg/kg in assay [1] (setting [3]) and in assay [1] (setting [4]) was 40% throughout. Further, the Kb in assay [2] is 2880 nM.
As to `CCS(=O)(=O)CCC(=O)NNC(=O)N1Cc2cccc(Cl)c2Oc2ccccc21` [Example 18, 4-chlorodibenz[b,f][1,4]oxazepine-10(11H)-carboxylic acid, 2-[3-(ethylsulfonyl)-1-oxopropyl]hydrazide], the responders at 30 mg/kg in assay [1] (setting [3]) and in assay [1] (setting [4]) was 40% throughout. The antagonist equilibrium constant (Kb) in assay [2] is 2690 nM.
On to `CCS(=O)(=O)CCC(=O)NNC(=O)N1Cc2ccccc2Oc2ccc(C)cc21` [Example 17, 8-methyldibenz[b,f][1,4]oxazepine-10(11H)-carboxylic acid, 2-[3-(ethylsulfonyl)-1-oxopropyl]hydrazide], for which the responders at 30 mg/kg in assay [1] (setting [3]) was 22.2%; in assay [1] (setting [4]), 20%. The Kb in assay [2] is 2090 nM.
Take `CCS(=O)(=O)CCC(=O)NNC(=O)N1Cc2ccccc2Oc2ccc(OC)cc21` [Example 16, 8-methoxydibenz[b,f][1,4]oxazepine-10(11H)-carboxylic acid, 2-[3-(ethylsulfonyl)-1-oxopropyl]hydrazide]: the responders at 30 mg/kg was 60% in assay [1] (setting [3]) and 20% in assay [1] (setting [4]). Besides, the Kb in assay [2] was 2000 nM.
For the compound `CCS(=O)(=O)CCC(=O)NNC(=O)N1Cc2ccccc2Sc2ccc(Cl)cc21` [Example 22, 8-chloro-10,11-dihydrodibenzo[b,f][1,4]thiazepine-10-(11H) carboxylic acid, 2-[3-(ethysulfonyl)-1-oxopropyl]hydrazide], the responders at 30 mg/kg in assay [1] (setting [3]) was 60%; in assay [1] (setting [4]), 30%.
`CCS(=O)(=O)CCC(=O)NNC(=O)N1Cc2ccccc2Oc2ccc(C#N)cc21` [Example 11, 8-cyanodibenz[b,f][1,4]oxazepine-10(11H)-carboxylic acid, 2-[3-(ethylsulfonyl)-1-oxopropyl]hydrazide]: the responders at 30 mg/kg is 55.6% in assay [1] (setting [3]) and 50% in assay [1] (setting [4]).
Taken in the same sequence, the figures for `CCS(=O)(=O)CCC(=O)NNC(=O)N1Cc2ccccc2Oc2ccc(NS(C)(=O)=O)cc21` [Example 14, 8-[(methylsulfonyl)amino]dibenz[b,f][1,4]-oxazepine-10(11H)-carboxylic acid, 2-[3-(ethylsulfonyl)-1-oxopropyl]hydrazide] were 60% and 60%.
With `CCS(=O)(=O)CCC(=O)NNC(=O)N1Cc2cc(Cl)ccc2Oc2ccccc21` [Example 8, 2-chlorodibenz[b,f][1,4]oxazepine-10(11H)-carboxylic acid, 2-[3-(ethylsulfonyl)-1-oxopropyl]hydrazide], the responders at 30 mg/kg in assay [1] (setting [3]) and in assay [1] (setting [4]) was 60% in each case.
As to `CCS(=O)(=O)CCC(=O)NNC(=O)N1Cc2ccccc2S(=O)(=O)c2ccc(Cl)cc21` [Example 23, 8-chloro-10,11-dihydrodibenzo[b,f][1,4]thiazepine-10(11H) carboxylic acid, 2-[3-(ethylsulfonyl)-1-oxopropyl]hydrazide, 5,5-dioxide], the results for the responders at 30 mg/kg in assay [1] (setting [3]) and in assay [1] (setting [4]) were 30% and 70%, respectively.
